Test results taken from patent publication US7772183B2 (Bristol-Myers Squibb Company, priority 2005, dated 2010).
Read-outs that look alike come from different tables or passages of the source.

Target: T1, HCV NS3/4A protease complex, BMS strain (UniProt P27958, species not given/STRAIN_BMS)
T1 construct: said of H77 and J4L6S; fused on or other part: A three-lysine solubilising tail at the C-terminus of NS4A and a His tag (pET21b, Ni-NTA purification)
Assay: FRET peptide assay to monitor HCV NS3/4A proteolytic activity (BMS strain)
Type: biochemical, Hepatitis C virus (genotype 1a)
Procedure, shortened: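 Recombinant NS3/4A complexes (aa 1027–1711) from H77 (1a) and J4L6S (1b) carried a three-lysine tail, C1711G and C1454S. They were expressed in E. coli BL21(DE3) (0.5 mM IPTG, 22 h, 20 °C), then purified by Ni-NTA and Superdex-S200 to >90% purity. The BMS strain was a genotype 1a clone from patient serum.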

T1 sequence (P27958 1027-1657, change not shown, one chain of several): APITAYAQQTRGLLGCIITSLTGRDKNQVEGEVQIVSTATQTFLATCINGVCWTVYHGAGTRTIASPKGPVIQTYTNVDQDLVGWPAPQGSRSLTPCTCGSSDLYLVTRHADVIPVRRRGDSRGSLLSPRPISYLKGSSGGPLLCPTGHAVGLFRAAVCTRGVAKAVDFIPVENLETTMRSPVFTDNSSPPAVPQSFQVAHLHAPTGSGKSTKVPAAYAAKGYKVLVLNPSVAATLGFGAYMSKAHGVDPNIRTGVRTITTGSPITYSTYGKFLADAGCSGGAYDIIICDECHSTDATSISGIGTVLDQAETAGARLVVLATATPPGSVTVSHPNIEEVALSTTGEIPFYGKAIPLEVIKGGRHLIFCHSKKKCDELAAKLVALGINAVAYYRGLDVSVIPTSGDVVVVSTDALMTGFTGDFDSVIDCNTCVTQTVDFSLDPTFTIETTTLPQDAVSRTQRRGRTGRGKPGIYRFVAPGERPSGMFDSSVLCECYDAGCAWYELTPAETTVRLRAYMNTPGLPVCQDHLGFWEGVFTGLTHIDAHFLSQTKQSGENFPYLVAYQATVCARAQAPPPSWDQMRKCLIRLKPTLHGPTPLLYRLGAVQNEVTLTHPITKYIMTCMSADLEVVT

CC(C)(C)OC(=O)N[C@H]1CCCCC/C=C\[C@@H]2C[C@@]2(C(=O)NS(=O)(=O)C2CC2)NC(=O)[C@@H]2C[C@@H](OC(=O)c3ccc(C#N)cc3)CN2C1=O [Compound 26, 18-(4-cyanobenzoyloxy)-14-tert-butoxycarbonylamino-4-cyclopropylsulfonylaminocarbonyl-2,15-dioxo-3,16-diazatricyclo-[14.3.0.0^4,6]-nonadec-7-ene]
IC50 (BMS strain, read-out: IC50 against the NS3/4A BMS strain in the enzyme assay): 0.78 nM
IC50 (NS3/4A BMS strain, read-out: IC50 Range): < 100 nM
